According to patent US20180134726A1, “PLANT GROWTH REGULATING COMPOUNDS” (Syngenta Participations AG, priority 2012, published 2018):

What was measured:
[1] = system: Orobanche cumana Wallr. seeds (race 'F'); test: Orobanche cumana seed germination test on glass fiber filter paper; type: in vivo; conditions: preconditioned seeds, seed lot IN153, 10 days at 20° C. in the dark, mean, N = 5 × 100 seeds
Method: The effect of compounds of Formula (I) on germination of Orobanche cumana Wallr. seeds was evaluated on glass fiber filter paper (GFFP) in petri dishes. Seeds were preconditioned at moisture and suitable temperature to become responsive to the specific chemical germination stimulants.
Test compounds were dissolved in DMSO (10 000 mg l^−1) and stored at room temperature in a desiccators with desiccants. The stock solutions were dissolved with deionised water to the appropriate final test concentration.
Seeds of O. cumana race ‘F’ were collected from sunflower fields in Manzanilla (Seville, Spain) in 2008 (seed lot IN153) and stored at room temperature. To separate seeds from heavy organic debris, a modified sucrose floatation technique as described by Hartman & Tanimonure (Plant Disease (1991), 75, p. 494) was applied. Seeds were filled into a separation funnel and stirred in water. When seeds floated to the surface, the water fraction containing heavy debris was discarded. Seeds were re-suspended in 2.5M sucrose solution (specific gravity of 1.20) and heavy debris was allowed to settle down for 60 min. After removing debris, seeds were disinfected in 1% sodium hypochlorite solution and 0.025% (v/v) Tween 20 for 2 min. The seeds were decanted onto two layers of cheesecloth, rinsed with sterile deionised water and re-suspended in sterile deionised water. Two ml of the seed suspension containing approximately 150-400 seeds were spread evenly on two layers of sterile glass fiber filter paper disc ([…]) in Petri dishes (Ø9 cm). After wetting the discs with 3 ml sterile deionised water, petri dishes were sealed with parafilm. Seeds were incubated for 10 days at 20° C. in the dark for seed conditioning. The upper disc with conditioned seeds was briefly dried, transferred to a petri dish lined with a dry GFFP disc, and wetted with 6 ml of the appropriate test solution. The compounds of Formula (I) were tested at concentrations of 0.001, 0.01, and 0.1 mg l^−1. The strigolactone analogue GR24 (commercially available as a mixture of isomers) was included as positive control and 0.001% DMSO as negative control. All treatments were tested in five replicates. Seeds were re-incubated at 20° C. in the dark and examined for germination 10 days later. The radicles of germinated seeds were stained for 5 min with blue ink (MIGROS, Switzerland) in 5% acetic acid according to Long et al. (Seed Science Research (2008), 18, p. 125). After staining, seeds were scanned using a flatbed scanner with an optical resolution of 1200 dpi (PULSTEK, OpticPro ST28) or photographed using a camera stand mounted with a digital SLR camera (Canon EOS 5D). Germination of 100 seeds per replicate was evaluated on digital images. Seeds were considered germinated when the radicle protruded from the seed coat.

[2] = system: Brassica oleracea cv Botrytis (temperate cauliflower Spacestar) seeds; test: Cauliflower paper germination test under suboptimal conditions; type: in vivo; conditions: 25 μM, 10° C. and in the light
Method: The effect of compounds of Formula (I) on the germination of Brassica oleracea cv Botrytis or common cauliflower was tested on two types of cauliflowers: temperate types and tropical types. These two types were chosen because they display different sensitivities to the light conditions and temperature during germination. Germination of a sensitive temperate type is inhibited by light at 10° C. while for the tropical types germination at 20° is stimulated by the presence of light. […] The temperate seed batches tested are part of commercially produced seed batches of various varieties which are known to be sensitive to light at 10° C. These seeds were harvested and cleaned according standard commercial procedures. Ready seed batches were used (Ready indicates the processing level of these seeds: they have been cleaned and sized but received no other treatments). The tropical seed batches tested are part of seed batches produced as basic seed (for maintenance of the parental line) and were processed accordingly. Germination was assessed using the standard paper germination test for Brassica: Fifty seeds were placed on blue germination paper, which was moistened with the appropriate solutions, in closed oblong germination boxes. Each condition was tested in duplo. Germination boxes were placed in controlled germination cabinets with the appropriate temperature and light conditions. Germination of seeds was counted at regular intervals. Seeds were considered to be germinated when the radical had protruded the testa and endosperm (radical size approximately 1 mm). Test compounds were dissolved in DMSO at a concentration of 50 mM and stored at −20° C. The strigolactone analogue GR24 (commercially available as a racemic mixture of 2 diastereoisomers, referred to as “synthetic strigolactone GR-24” and first prepared by Johnson A. W. & all, Journal of the Chemical Society, Perkin Transactions 1, 1981, page 1734-1743) was included as positive control. Germination solutions were prepared by diluting the stock solutions with demineralized water till 25 μM. As control solutions demineralized water and a 0.05% v/v DMSO solution were used.

[3] = Spacestar seed batch 11B313 (cold-sensitive)
[4] = Spacestar seed batch 11B314 (not cold sensitive)

CC1=C[C@H](O/C=C2/C(=O)O[C@@H]3c4ccccc4C[C@H]23)OC1=O [GR24]
Germination (%) ([1]; 0.001 mg l^−1): 67% | Germination (%) ([1]; 0.01 mg l^−1): 65% | Germination (%) ([1]; 0.1 mg l^−1): 78.4% | Gmax (total germination as percentage of sown seeds) [2, 3]: 71.5% | stimulation (extra germination compared to the DMSO treatment, as percentage of the germination in the DMSO treatment) [2, 3]: 19.2% | Gmax (total germination as percentage of sown seeds) [2, 4]: 93.5% | stimulation (extra germination compared to the DMSO treatment, as percentage of the germination in the DMSO treatment) [2, 4]: 3.3%

CC1=C[C@H](O/C=C2/C(=O)N[C@@H]3c4ccsc4C[C@H]23)OC1=O (racemic) [Compound A3, (3aR*,8bS*)-(3E)-3-[(2R)(4-methyl-5-oxo-2H-furan-2-yl)oxymethylene]-3,3a,4,8b-tetrahydro-1H-thioindeno[1,2-b]pyrrol-2-one]
Germination (%) ([1]; 0.001 mg l^−1): 87.8% | Germination (%) ([1]; 0.01 mg l^−1): 85.6% | Germination (%) ([1]; 0.1 mg l^−1): 84.6% | Gmax (total germination as percentage of sown seeds) [2, 3]: 75.0% | stimulation (extra germination compared to the DMSO treatment, as percentage of the germination in the DMSO treatment) [2, 3]: 38.9% | Gmax (total germination as percentage of sown seeds) [2, 4]: 94.0% | stimulation (extra germination compared to the DMSO treatment, as percentage of the germination in the DMSO treatment) [2, 4]: 9.3%
